Assay results taken from US20250163056A1, “NONMUSCLE MYOSIN II INHIBITORS” (The University of Florida Research Foundation, Inc., priority 2018, published 2025).

What was measured:
Rabbit skeletal myosin = assay: Skeletal muscle myosin II actin-activated ATPase assay; assay type: biochemical; conditions: 20 nM skeletal muscle myosin II; read-out: SKMMII KI
Summary of the method: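 Inhibitory constants come from a quadratic one-site fit of 16-point, triplicate dose-response data, highest compound concentration 50 uM. Rates are slopes of NADH fluorescence decline over 30 min, coupling ATP turnover of 20 nM rabbit skeletal myosin II with 10 μM actin and 1 mM ATP via PK/LDH, pH 7.0, 25 °C.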

[1] = Photostability, percentage remaining undegraded under illumination or in the dark; conditions: for Photostability 4 hours: percentage remaining undegraded after 4 hours illumination; for Photostability 24 hours: percentage remaining undegraded after 24 hours illumination; for Photostability Dark (24 h): percentage remaining undegraded in the dark
Bovine cardiac myosin = Bovine cardiac myosin (Bos taurus (Bovine), UniProt Q9BE39); assay: Cardiac muscle myosin II actin-activated ATPase assay (NADH-coupled); assay type: biochemical; set-up: key to Ratio CMMII:NMII Ki/EC50: NMII-sel: no Ki value for cardiac myosin II could be determined; the compounds had no detectable inhibitory properties versus the cardiac myosin II; conditions: for Ratio CMMII:NMII Ki/EC50: cardiac myosin II Ki over nonmuscle myosin II EC50; for Ki: 300 nM cardiac myosin, 10 μM actin, 25° C., read-out: CMMII KI
Summary of the method: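 Inhibitory constants came from a quadratic one-to-one binding fit of 16-point dose-responses (highest final 50 uM, triplicate). Rates were NADH-calibrated fluorescence slopes over 30 min at 25° C, with 300 nM bovine cardiac myosin, 10 μM actin and 1 mM ATP coupled through PK/LDH in pH 7.0 MOPS buffer.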

Chain of Bovine cardiac myosin (Q9BE39 whole entry): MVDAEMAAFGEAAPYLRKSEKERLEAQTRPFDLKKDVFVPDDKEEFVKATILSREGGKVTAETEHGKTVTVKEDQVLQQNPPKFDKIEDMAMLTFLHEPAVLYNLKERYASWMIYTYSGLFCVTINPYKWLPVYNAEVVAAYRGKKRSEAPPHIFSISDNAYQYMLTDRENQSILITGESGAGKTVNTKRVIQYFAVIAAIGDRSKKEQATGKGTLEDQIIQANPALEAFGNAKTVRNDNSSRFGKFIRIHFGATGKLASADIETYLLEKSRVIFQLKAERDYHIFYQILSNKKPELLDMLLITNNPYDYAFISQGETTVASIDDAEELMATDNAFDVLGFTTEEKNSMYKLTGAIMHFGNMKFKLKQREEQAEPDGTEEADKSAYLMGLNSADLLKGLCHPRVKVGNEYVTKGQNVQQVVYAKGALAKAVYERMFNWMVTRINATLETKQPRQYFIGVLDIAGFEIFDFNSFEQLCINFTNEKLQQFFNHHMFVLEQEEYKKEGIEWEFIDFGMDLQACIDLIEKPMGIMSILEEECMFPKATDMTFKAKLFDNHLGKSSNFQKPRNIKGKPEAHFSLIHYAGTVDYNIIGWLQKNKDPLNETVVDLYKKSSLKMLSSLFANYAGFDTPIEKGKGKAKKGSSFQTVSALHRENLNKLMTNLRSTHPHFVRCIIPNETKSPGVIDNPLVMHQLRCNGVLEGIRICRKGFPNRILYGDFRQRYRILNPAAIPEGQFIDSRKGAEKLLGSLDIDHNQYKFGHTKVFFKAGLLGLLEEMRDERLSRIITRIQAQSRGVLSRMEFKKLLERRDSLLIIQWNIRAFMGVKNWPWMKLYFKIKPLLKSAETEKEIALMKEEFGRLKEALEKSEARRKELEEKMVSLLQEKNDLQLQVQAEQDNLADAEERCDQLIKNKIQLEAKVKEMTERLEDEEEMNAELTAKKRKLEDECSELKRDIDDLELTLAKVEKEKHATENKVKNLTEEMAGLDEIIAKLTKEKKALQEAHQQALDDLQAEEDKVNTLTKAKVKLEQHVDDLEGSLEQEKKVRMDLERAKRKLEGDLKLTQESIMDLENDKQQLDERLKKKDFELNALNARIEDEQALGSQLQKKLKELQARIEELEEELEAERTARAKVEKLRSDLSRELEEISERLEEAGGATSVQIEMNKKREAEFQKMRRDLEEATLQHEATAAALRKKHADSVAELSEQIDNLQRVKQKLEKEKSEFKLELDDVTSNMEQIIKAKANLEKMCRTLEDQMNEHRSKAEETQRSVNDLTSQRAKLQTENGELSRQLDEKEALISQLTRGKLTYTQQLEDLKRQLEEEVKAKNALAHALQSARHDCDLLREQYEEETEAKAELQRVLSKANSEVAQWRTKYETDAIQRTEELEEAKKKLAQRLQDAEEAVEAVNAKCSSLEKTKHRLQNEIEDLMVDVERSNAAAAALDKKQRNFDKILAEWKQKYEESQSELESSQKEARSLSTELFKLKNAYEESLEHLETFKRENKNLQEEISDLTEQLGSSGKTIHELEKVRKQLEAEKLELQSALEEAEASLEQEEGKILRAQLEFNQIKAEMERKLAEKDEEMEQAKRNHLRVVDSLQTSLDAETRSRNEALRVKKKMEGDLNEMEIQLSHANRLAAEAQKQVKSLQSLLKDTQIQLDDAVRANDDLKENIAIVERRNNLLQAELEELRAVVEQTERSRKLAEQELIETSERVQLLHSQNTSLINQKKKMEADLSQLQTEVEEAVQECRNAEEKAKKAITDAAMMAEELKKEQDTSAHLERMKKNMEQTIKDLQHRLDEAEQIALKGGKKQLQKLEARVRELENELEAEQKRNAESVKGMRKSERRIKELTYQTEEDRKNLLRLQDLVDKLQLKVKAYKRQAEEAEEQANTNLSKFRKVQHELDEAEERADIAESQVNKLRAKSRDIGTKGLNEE
Chain of Bovine cardiac myosin (P85100 whole entry partner): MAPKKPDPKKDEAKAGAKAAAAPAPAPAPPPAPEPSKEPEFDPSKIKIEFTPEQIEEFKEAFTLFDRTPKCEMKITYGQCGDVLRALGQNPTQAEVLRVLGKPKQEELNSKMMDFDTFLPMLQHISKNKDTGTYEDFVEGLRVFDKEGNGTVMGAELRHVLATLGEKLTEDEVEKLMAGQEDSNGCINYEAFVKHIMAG
Chain of Bovine cardiac myosin (Q3SZE5 whole entry partner): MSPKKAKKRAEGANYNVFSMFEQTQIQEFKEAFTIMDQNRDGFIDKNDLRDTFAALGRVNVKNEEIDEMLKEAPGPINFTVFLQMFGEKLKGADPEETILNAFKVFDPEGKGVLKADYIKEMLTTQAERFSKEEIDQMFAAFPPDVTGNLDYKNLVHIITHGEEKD

Structure (SMILES) | Ki (Rabbit skeletal myosin) [µM] | Photostability 4 hours [1] [%] | Photostability 24 hours [1] [%] | Photostability Dark (24 h) [1] [%] | Ratio CMMII:NMII Ki/EC50 (Bovine cardiac myosin) | Ki (Bovine cardiac myosin) [µM]
Cc1sc2c(c1C)C(=O)[C@]1(O)CCN(c3ccc(C#N)c(Cl)c3)C1=N2 [BPN-0027238] | 3.7 | >99 | >99 | >99 | NMII-sel | –
Cc1cc2c(cc1C)C(=O)[C@]1(O)CCN(c3ccc4nnccc4c3)C1=N2 [BPN-0027241] | 7.2 | 91.6 | 87.0 | 97.4 | 7.7 | 100
COc1ccc2cc(N3CC[C@@]4(O)C(=O)c5cc(C)c(C)cc5N=C34)ccc2n1 [BPN-0027250] | 1 | 45.8 | 2.7 | 70.1 | NMII-sel | –
COc1ccc2cc(N3CC[C@@]4(O)C(=O)c5cc(C)ccc5N=C34)ccc2n1 [BPN-0027255] | 0.8 | 82.4 | 42.2 | 98.3 | NMII-sel | –
Cc1cc2c(s1)N=C1N(c3ccc(C#N)c(Cl)c3)CC[C@@]1(O)C2=O [BPN-0027257] | 4.2 | 97.0 | 78.0 | 97.4 | 6.8 | 40
Cc1ccc2c(c1)C(=O)[C@]1(O)CCN(c3ccc4nc(C)ccc4c3)C1=N2 [BPN-0027289] | 1 | 91.9 | 26.3 | 97.0 | 29.4 | 50
Cc1ccc2c(c1)C(=O)[C@]1(O)CCN(c3ccc4nccnc4c3)C1=N2 [BPN-0027330] | 4.2 | 92.7 | 64.6 | >99 | 8.0 | 80
Cc1cc(N2CC[C@@]3(O)C(=O)c4cc(C)c(C(F)(F)F)cc4N=C23)on1 [BPN-0027346] | 2 | 97.7 | 98.7 | 98.1 | 6.9 | 33
Cc1ccc2c(c1)C(=O)[C@]1(O)CCN(c3ccc4c(C)noc4c3)C1=N2 [BPN-0027374] | 0.82 | 96.9 | 86.4 | >99 | NMII-sel | –
Cc1sc2c(c1C)C(=O)[C@]1(O)CCN(c3ccc4ncccc4c3)C1=N2 [BPN-0027376] | 6.7 | 90.4 | 2.8 | 97.0 | 7.8 | 46
Cc1ccc2c(c1)C(=O)[C@]1(O)CCN(c3ccc4nc(C#N)ccc4c3)C1=N2 [BPN-0027393] | 3.5 | 95.2 | 83.9 | 97.5 | 5.8 | 30
Cc1ccc2c(c1)C(=O)[C@]1(O)CCN(c3ccc4nsnc4c3)C1=N2 [BPN-0027394] | 1.1 | 92.2 | 57.2 | 98.7 | 3.4 | 14
Cc1ccc2c(c1)C(=O)[C@]1(O)CCN(c3ccn4nccc4c3)C1=N2 [BPN-0027396] | 1.1 | 85.5 | 23.5 | >99 | 5.3 | 9.5
Cc1ccc2c(c1)C(=O)[C@]1(O)CCN(c3ccc4cncn4c3)C1=N2 [BPN-0027406] | 7.5 | 75.7 | 1.6 | >99 | 3.8 | 200
Cc1ccc2c(c1)C(=O)[C@]1(O)CCN(c3cnc4sccc4c3)C1=N2 [BPN-0027410] | 1.6 | 91.5 | 41.8 | >99 | 7.4 | 25
Cc1ccc2c(c1)C(=O)[C@]1(O)CCN(c3ccc4sc(C)nc4c3)C1=N2 [BPN-0027411] | 1.1 | 81.8 | 6.4 | 98.8 | 8.1 | 51

Structure (SMILES) | Ki (Rabbit skeletal myosin) [µM] | Photostability 4 hours [1] [%] | Photostability 24 hours [1] [%] | Photostability Dark (24 h) [1] [%] | Ratio CMMII:NMII Ki/EC50 (Bovine cardiac myosin) | Ki (Bovine cardiac myosin) [µM]
Cc1ccc2c(c1)C(=O)[C@]1(O)CCN(c3ccc4c(c3)OCCN4)C1=N2 [BPN-0027412] | 2.7 | 90.8 | 67.7 | 95.5 | 3.6 | 21
Cc1ccc2c(c1)C(=O)[C@]1(O)CCN(c3ccn4ncnc4c3)C1=N2 [BPN-0027441] | 12 | 97.2 | 71.4 | 91.8 | 4.6 | 230
Cc1ccc2c(c1)C(=O)[C@]1(O)CCN(c3cc4ncccc4s3)C1=N2 [BPN-0027468] | 1.2 | 83.3 | 77.5 | 98.3 | NMII-sel | –
Cc1ccc2c(c1)C(=O)[C@]1(O)CCN(c3cc4cccnc4s3)C1=N2 [BPN-0027469] | 0.68 | 58.8 | 44.3 | >99 | NMII-sel | –
Cc1cc2c(cc1C)C(=O)[C@]1(O)CCN(c3ccn4nccc4c3)C1=N2 [BPN-0027488] | 0.9 | 49.4 | 20.0 | 96.4 | NMII-sel | –
Cc1cc2c(cc1C)C(=O)[C@]1(O)CCN(c3cnc4sccc4c3)C1=N2 [BPN-0027489] | 0.94 | 76.1 | 8.5 | >99 | 33.3 | 26
Cc1ccc2cc(N3CC[C@@]4(O)C(=O)c5cc(C)c(C)cc5N=C34)ccc2n1 [BPN-0027490] | 0.41 | 80.8 | 6.8 | 98.5 | NMII-sel | –
Cc1nc2cc(N3CC[C@@]4(O)C(=O)c5cc(C)c(C)cc5N=C34)ccc2s1 [BPN-0027491] | 0.68 | 54.0 | 6.7 | 97.1 | 10.4 | 24
Cc1cc2c(cc1C)C(=O)[C@]1(O)CCN(c3ccc4nc(C#N)ccc4c3)C1=N2 [BPN-0027492] | 2.6 | 95.1 | 66.9 | >99 | NMII-sel | –
Cc1ccc2c(c1)C(=O)[C@]1(O)CCN(c3ccc4nc(N)ccc4c3)C1=N2 [BPN-0027494] | 4.7 | 63.5 | <1.0 | 88.4 | NMII-sel | –
Cc1cc2c(cc1C)C(=O)[C@]1(O)CCN(c3ccc4nnsc4c3)C1=N2 [BPN-0028550] | 9.4 | 92.7 | 77.6 | 89.4 | 7.5 | 70
Cc1cc2c(cc1C)C(=O)[C@]1(O)CCN(c3ccc4c(c3)OCCN4)C1=N2 [BPN-0028552] | 2.5 | 87.7 | 62.2 | 91.8 | 21.7 | 26
Cc1ccc2c(c1)C(=O)[C@]1(O)CCN(c3ccc4nc(CO)ccc4c3)C1=N2 [BPN-0028554] | 9 | 87.6 | 35.9 | 97.6 | 12.4 | 120
Cc1cc2c(cc1C)C(=O)[C@]1(O)CCN(c3ccc4oc(CO)cc4c3)C1=N2 [BPN-0028555] | 1.5 | 4.7 | <1 | 93.6 | 6.1 | 4.6
Cc1cc(N2CC[C@@]3(O)C(=O)c4cc(C)c(C)cc4N=C23)ccn1 [BPN-0028616] | 11 | 93.2 | 71.0 | 89.4 | 13.3 | 200
CCC1=CC2N=C3N(c4ccc5ncccc5c4)CC[C@@]3(O)C(=O)C2S1 (some centres unmarked) [BPN-0028625] | 8.9 | 84.4 | 84.6 | 81.8 | 56.6 | 300
